Laboratory results: publication PMC6491784, “Para-Halogenation Affects Monoamine Transporter Inhibition Properties and Hepatocellular Toxicity of Amphetamines and Methcathinones” (Frontiers in Pharmacology, 2019)
pIC50: −log10 of the molar value.

Legend:
HepG2 cells [1] = test: ATP content (CellTiter-Glo); type: cell-based, human; conditions: HepG2, 24 h exposure
Protocol: The ATP content was assessed with the CellTiter-Glo Luminescent Cell Viability Assay (Promega, Dübendorf, Switzerland). Briefly, HepG2 cells were seeded in a 96-well plate at a density of 25,000 cells per well. The following day, the cells were treated with 100 μl of the test substances dissolved in medium (0.25, 0.5, 1.0, and 2.0 mM of each drug, and additionally, 0.1 mM of 4-fluoroamphetamine and 4-chloroamphetamine). Triton X-100 (0.5%) was chosen as positive control to induce cell lysis. After 24 h incubation, 50 μl of the supernatant was discarded, and 50 μl of CellTiter-Glo reagent was added to each well. The plate was then shaken for 15 min at room temperature to induce cell lysis. Thereafter, luminescence was measured with a M200 Pro Infinity plate reader (Tecan, Männedorf, Switzerland) and compared to medium control.
(§1) All statistical analyses were performed using GraphPad Prism 7.0c (GraphPad Software, La Jolla, CA, USA). For toxicology assays, differences between control and test drugs were calculated with ANOVA followed by Dunett’s test. p below 0.05 was considered statistically significant. Monoamine uptake data were fit by nonlinear regression to variable slope sigmoidal dose-response curves to assess IC50 values.

HepG2 cells [2] = test: Cellular oxygen consumption rate (Seahorse XF24); type: cell-based, human; conditions: HepG2, 24 h exposure; for Concentration decreasing maximal respiratory capacity: OCR after FCCP; for Concentration disrupting cellular respiration: investigated range ≤2 mM
Protocol: The cellular oxygen consumption rate (OCR) was measured with a Seahorse XF24 Analyzer (Seahorse Biosciences, North Billerica, MA, USA). Briefly, HepG2 cells were seeded in a poly-D-lysine coated Seahorse XF24 cell culture microplate at a density of 100,000 cells per well. The following day, the cells were treated with the compounds of interest dissolved in 100 μl culture medium. After 24 h incubation, the medium was removed, and the cells were washed twice with pre-warmed and unbuffered DMEM (4 mM L-glutamate, 1 mM pyruvate, 1 g/L glucose, 63.3 mM sodium chloride, pH 7.4). Thereafter, 750 μl of unbuffered DMEM was added to each well, and the plate was incubated in a CO2 free incubator for 40 min at 37°C. The ports of the XF24 assay cartridge were then loaded with oligomycin, trifluoromethoxy carbonylcyanide phenylhydrazone (FCCP), or rotenone at a final assay concentration of 1 μM, and the cartridge was loaded into the Seahorse XF24 Analyzer. First, oligomycin was injected to inhibit mitochondrial phosphorylation, allowing a quantification of proton leak. Second, oxidative phosphorylation was uncoupled from ATP synthesis by FCCP to determine the maximal respiratory capacity of the cells. Third, rotenone was injected to inhibit complex I of the electron transport chain in order to assess for extramitochondrial respiration, which was then subtracted from basal, leak, and maximal respiration. The protein content was determined using sulforhodamine B staining. The cells were fixed with 100 μl trichloroacetic acid (50% [w/v]), added to each well of the assay plate. After 1 h at 4°C, the cells were washed with deionized water and stained with sulforhodamine B (0.4% [w/v], in 1% [v/v] acetic acid). After 20 min, the cells were rapidly washed with 1% (v/v) acetic acid, and the incorporated dye was solubilized with 100 μl of 10 mM TRIS base. The absorbance was then measured at 490 nm.
as §1

human NET = biological target: T1, human NET (Homo sapiens, UniProt P23975); test: Norepinephrine uptake inhibition in hNET-transfected HEK 293 cells; type: cell-based
T1 construct: expressed in transfected cells; host or cells: HEK 293 (stably transfected)
T1 sequence (P23975 whole entry): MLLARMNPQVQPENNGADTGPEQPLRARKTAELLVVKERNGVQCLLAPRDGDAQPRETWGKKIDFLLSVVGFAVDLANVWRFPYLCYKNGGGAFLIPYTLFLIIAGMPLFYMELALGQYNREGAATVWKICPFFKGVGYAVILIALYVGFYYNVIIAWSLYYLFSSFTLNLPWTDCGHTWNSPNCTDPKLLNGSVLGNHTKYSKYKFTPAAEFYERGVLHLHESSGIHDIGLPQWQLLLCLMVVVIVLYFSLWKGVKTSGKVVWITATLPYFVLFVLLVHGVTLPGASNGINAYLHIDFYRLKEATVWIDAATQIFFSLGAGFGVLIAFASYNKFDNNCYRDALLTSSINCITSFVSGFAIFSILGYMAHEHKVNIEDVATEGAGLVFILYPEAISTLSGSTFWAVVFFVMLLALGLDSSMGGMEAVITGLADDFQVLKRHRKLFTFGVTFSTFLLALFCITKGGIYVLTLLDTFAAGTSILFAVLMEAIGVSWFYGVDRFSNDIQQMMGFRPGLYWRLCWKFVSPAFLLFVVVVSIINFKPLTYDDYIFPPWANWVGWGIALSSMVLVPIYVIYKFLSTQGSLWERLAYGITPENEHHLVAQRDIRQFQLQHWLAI

human SERT = biological target: T2, human SERT (Homo sapiens, UniProt P31645); test: Serotonin uptake inhibition in hSERT-transfected HEK 293 cells; type: cell-based
T2 construct: expressed in transfected cells; host or cells: HEK 293 (stably transfected)
T2 sequence (P31645 whole entry): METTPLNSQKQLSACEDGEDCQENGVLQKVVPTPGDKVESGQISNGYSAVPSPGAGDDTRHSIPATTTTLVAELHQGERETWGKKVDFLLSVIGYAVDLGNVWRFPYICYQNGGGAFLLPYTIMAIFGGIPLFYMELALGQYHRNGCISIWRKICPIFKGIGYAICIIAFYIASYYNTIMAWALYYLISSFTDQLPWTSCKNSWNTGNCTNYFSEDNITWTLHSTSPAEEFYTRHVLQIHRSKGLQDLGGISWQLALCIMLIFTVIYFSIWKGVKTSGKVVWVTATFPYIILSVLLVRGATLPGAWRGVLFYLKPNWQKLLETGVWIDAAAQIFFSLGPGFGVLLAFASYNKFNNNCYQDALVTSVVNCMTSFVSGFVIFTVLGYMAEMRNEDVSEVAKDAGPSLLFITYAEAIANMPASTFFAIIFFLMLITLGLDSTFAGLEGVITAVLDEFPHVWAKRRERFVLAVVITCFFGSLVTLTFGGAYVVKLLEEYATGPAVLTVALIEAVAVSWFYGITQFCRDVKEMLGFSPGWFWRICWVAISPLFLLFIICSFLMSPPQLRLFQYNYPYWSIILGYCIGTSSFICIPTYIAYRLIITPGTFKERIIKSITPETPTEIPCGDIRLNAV

human DAT = biological target: T3, human DAT (Homo sapiens, UniProt Q01959); test: Dopamine uptake inhibition in hDAT-transfected HEK 293 cells; type: cell-based
T3 construct: expressed in transfected cells; host or cells: HEK 293 (stably transfected)
T3 sequence (Q01959 whole entry): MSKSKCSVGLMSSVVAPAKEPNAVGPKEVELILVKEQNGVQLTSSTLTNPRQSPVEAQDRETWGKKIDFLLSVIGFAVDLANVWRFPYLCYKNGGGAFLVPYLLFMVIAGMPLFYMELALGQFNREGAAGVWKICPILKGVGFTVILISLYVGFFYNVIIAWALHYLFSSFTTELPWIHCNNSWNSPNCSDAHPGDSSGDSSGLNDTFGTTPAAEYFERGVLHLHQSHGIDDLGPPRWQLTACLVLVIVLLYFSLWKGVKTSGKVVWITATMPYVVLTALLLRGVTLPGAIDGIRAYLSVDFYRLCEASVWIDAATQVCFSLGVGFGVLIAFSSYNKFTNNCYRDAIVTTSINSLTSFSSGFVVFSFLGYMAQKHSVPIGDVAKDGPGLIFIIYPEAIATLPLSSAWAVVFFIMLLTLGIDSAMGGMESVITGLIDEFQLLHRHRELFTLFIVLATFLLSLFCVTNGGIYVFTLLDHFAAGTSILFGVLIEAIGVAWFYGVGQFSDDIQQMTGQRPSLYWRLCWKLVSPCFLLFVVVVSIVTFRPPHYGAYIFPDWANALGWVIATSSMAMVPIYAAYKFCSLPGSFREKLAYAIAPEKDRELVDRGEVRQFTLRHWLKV

HepG2 cells [3] = test: Cell membrane integrity (ToxiLight BioAssay); type: cell-based, human; conditions: HepG2, 24 h exposure; tested up to 2 mM
Protocol: Cell membrane integrity loss was assessed with the ToxiLight BioAssay Kit (Lonza, Basel, Switzerland) as a marker of cytotoxicity. Briefly, HepG2 cells were seeded in a 96-well plate at a density of 25,000 cells per well. The following day, the cells were treated with 100 μl of the compounds of interest dissolved in medium (0.25, 0.5, 1.0, and 2.0 mM of each drug, and additionally, 0.1 mM of 4-fluoroamphetamine and 4-chloroamphetamine). Triton X-100 (0.5%) was chosen as positive control to induce cell lysis. After 24 h, 50 μl of the ToxiLight assay buffer was added to 20 μl of the supernatant of the drug treatments. After 5 min incubation under shaking, luminescence was measured with a M200 Pro Infinity plate reader (Tecan, Männedorf, Switzerland) and compared to medium control. The amount of viable cells (no cell membrane integrity loss) was calculated in relation to untreated cells and cells lysed with Triton X-100, which were determined to represent 100% and 0% viable cells, respectively.
as §1

HepG2 cells [4] = test: Mechanisms of cell death (annexin V / propidium iodide flow cytometry); type: cell-based, human; conditions: HepG2, 24 h exposure; for Main mechanism of cell death: 4-chloroamphetamine at 0.5 mM; for Concentration causing significant reduction in cell viability (annexin V staining): highest concentration 2 mM
Description: Annexin V, a Ca^2+-dependent phospholipid-binding protein that has a high affinity for phosphatidylserine, was used to determine the percentage of apoptotic cells. Phosphatidylserine is located in the inner cytoplasmic surface of intact cell membranes; in apoptotic cells, phosphatidylserine is translocated to the outer leaflet of the plasma membrane where annexin V binds to it. To assess the percentage of dead cells composed of necrotic and late apoptotic cells, propidium iodide, a red fluorescent dye not permeable to live and apoptotic cells but able to stain permeable necrotic cells by binding to the nucleic acid in the cell, was used. Briefly, 100,000 HepG2 cells per well were seeded in a 48-well plate and cultured overnight. The following day, the cells were treated with 250 μl of the compounds of interest dissolved in medium at concentrations selected based on ATP depletion and cell membrane disruption. Doxorubicin (0.5 μM) was included as positive control. After incubation for 24 h, the cells were harvested with 0.05% trypsin and washed with phosphate buffered saline (pH = 7.4). […] After 15 min incubation in the dark, the cells were analyzed with a CytoFLEX flow cytometer (Beckman Coulter, IN, USA) gating for 10,000 cells.
as §1

HepG2 cells [5] = test: Mitochondrial superoxide production (MitoSOX); type: cell-based, human; conditions: HepG2, 24 h exposure
Protocol: Briefly, HepG2 cells were seeded in a 96-well plate at a density of 25,000 cells per well. The following day, the cells were treated with 100 μl of the test substances dissolved in medium (0.25, 0.5, 1.0, and 2.0 mM of each drug, and additionally, 0.1 mM of 4-fluoroamphetamine and 4-chloroamphetamine). Amiodarone (50 μM) was included as positive control. After 24 h incubation, 100 μl of MitoSOX reagent (2.5 μM) was added to each well for 10 min at 37°C protected from light. After that, fluorescence was measured at 510/580 nm with a M200 Pro Infinity plate reader (Tecan, Männedorf, Switzerland). The protein content was assessed with the Pierce BCA Protein Assay Kit (Thermo Fisher Scientific, Basel, Switzerland).
as §1

SMILES: CC(N)Cc1ccc(Cl)cc1 (centres unmarked) [4-Chloroamphetamine]
- Concentration at which significant depletion of ATP was observed (HepG2 cells [1]): 100 µM
- ATP content at 0.5 mM (HepG2 cells [1]; 0.5 mM): almost complete ATP depletion
- Concentration decreasing maximal respiratory capacity (HepG2 cells [2]): 100 µM
- pIC50 (human NET): 6.49
- pIC50 (human SERT): 6.31
- DAT/SERT ratio (human DAT): 0.14 (0.07–0.25)
- pIC50 (human DAT): 5.44
- Concentration causing significant cell membrane integrity loss (HepG2 cells [3]): 500 µM
- Main mechanism of cell death (HepG2 cells [4]): necrosis
- Concentration causing significant reduction in cell viability (annexin V staining) (HepG2 cells [4]): 500 µM
- Concentration at which significant increase in mitochondrial superoxide was observed (HepG2 cells [5]): 500 µM

SMILES: CNC(C)C(=O)c1ccc(Cl)cc1 (centres unmarked) [4-Chloromethcathinone, 4-chloromethcathinone]
- Concentration at which significant depletion of ATP was observed (HepG2 cells [1]): 1000 µM
- Concentration showing signs of uncoupling of cellular respiration from ATP synthesis (HepG2 cells [2]; OCR): 1000 µM
- Concentration decreasing maximal respiratory capacity (HepG2 cells [2]): 1000 µM
- pIC50 (human NET): 6.37
- pIC50 (human SERT): 5.64
- DAT/SERT ratio (human DAT): 0.45 (0.25–0.83)
- pIC50 (human DAT): 5.29
- Concentration causing significant cell membrane integrity loss (HepG2 cells [3]): 2000 µM
- Main mechanism of cell death (HepG2 cells [4]): Apoptosis
- Concentration causing significant reduction in cell viability (annexin V staining) (HepG2 cells [4]): 1000 µM
- Concentration at which significant increase in mitochondrial superoxide was observed (HepG2 cells [5]): 1000 µM

SMILES: CC(N)Cc1ccc(F)cc1 (centres unmarked) [4-Fluoroamphetamine, 4-fluoroamphetamine]
- Concentration at which significant depletion of ATP was observed (HepG2 cells [1]): 500 µM
- Concentration decreasing maximal respiratory capacity (HepG2 cells [2]): 1000 µM
- pIC50 (human NET): 6.82
- pIC50 (human SERT): 4.85
- DAT/SERT ratio (human DAT): 3.6 (1.9–6.5)
- pIC50 (human DAT): 5.41
- Concentration causing significant cell membrane integrity loss (HepG2 cells [3]): 2000 µM
- Main mechanism of cell death (HepG2 cells [4]): Apoptosis
- Concentration causing significant reduction in cell viability (annexin V staining) (HepG2 cells [4]): 1000 µM
- Concentration at which significant increase in mitochondrial superoxide was observed (HepG2 cells [5]): 1000 µM

SMILES: CNC(C)C(=O)c1ccc(F)cc1 (centres unmarked) [4-Fluoromethcathinone, 4-fluoromethcathinone]
- Concentration at which significant depletion of ATP was observed (HepG2 cells [1]): 1000 µM
- Concentration disrupting cellular respiration (HepG2 cells [2]): > 2000 µM
- pIC50 (human NET): 6.46
- pIC50 (human SERT): 4.43
- DAT/SERT ratio (human DAT): 5.6 (3.3–9.4)
- pIC50 (human DAT): 5.18
- Concentration causing significant cell membrane integrity loss (HepG2 cells [3]): > 2000 µM
- Amount of necrotic and apoptotic cells versus control at 2 mM (HepG2 cells [4]): did not significantly differ from control incubations
- Concentration causing significant reduction in cell viability (annexin V staining) (HepG2 cells [4]): > 2000 µM
- Concentration at which significant increase in mitochondrial superoxide was observed (HepG2 cells [5]): 2000 µM

SMILES: CC(N)Cc1ccccc1 (centres unmarked) [Amphetamine]
- Concentration at which significant depletion of ATP was observed (HepG2 cells [1]): 1000 µM
- Concentration causing significant cell membrane integrity loss (HepG2 cells [3]): 2000 µM
- Amount of necrotic and apoptotic cells versus control at 2 mM (HepG2 cells [4]): did not significantly differ from control incubations
- Concentration at which significant increase in mitochondrial superoxide was observed (HepG2 cells [5]): 2000 µM

SMILES: CNC(C)C(=O)c1ccccc1 (centres unmarked) [Methcathinone, methcathinone]
- Concentration at which significant depletion of ATP was observed (HepG2 cells [1]): 2000 µM
- Concentration disrupting cellular respiration (HepG2 cells [2]): > 2000 µM
- pIC50 (human NET): 6.92
- pIC50 (human SERT): 4.27
- DAT/SERT ratio (human DAT): 34 (20–57)
- pIC50 (human DAT): 5.80
- Concentration causing significant cell membrane integrity loss (HepG2 cells [3]): > 2000 µM
- Amount of necrotic and apoptotic cells versus control at 2 mM (HepG2 cells [4]): did not significantly differ from control incubations
- Concentration causing significant reduction in cell viability (annexin V staining) (HepG2 cells [4]): > 2000 µM
- Concentration at which significant increase in mitochondrial superoxide was observed (HepG2 cells [5]): 2000 µM
